Measured values as given in patent publication US8580816B2, “Carboxylic acid derivatives having an oxazolo[5,4-b]pyridine ring” (Sanofi, priority 2011, dated 2013).

target: T1, human Edg 1 receptor (Homo sapiens, UniProt P21453); assay: GTP-γ-S assay using human Edg 1 receptors (scintillation proximity assay, CHO Flp-In membrane preparation); format: biochemical; details: test compound at 10 μM; relative to high control 10 μM S1P = 100% activation; membranes of CHO Flp-In cells overexpressing human Edg 1; triplicate
T1 construct: FLAG (N); expressed in transfected cells
Source text: A) GTP-γ-S Assay Using Human Edg 1 Receptors
In order to determine the Edg 1 receptor activation by the compounds of the invention, a GTP-γ-S ((GTP-γ-S=guanosine 5′-[thio]triphosphate) assay for G-protein coupled receptor binding based on the scintillation proximity assay principle was used, employing a cell membrane preparation from a CHO Flp-In cell line which constitutively overexpresses the human Edg 1 receptor.
A membrane preparation was obtained by standard methods from the afore-described CHO Flp-In cell line constitutively overexpressing the human Edg 1 receptor. Briefly, the cryopreserved cells were taken in culture and grown until confluency in T175 cell culture flasks (Becton Dickinson, cat. no. 35 5001). Cell culture was stopped by washing with calcium-free phosphate-buffered saline (PBS; Gibco, cat. no. 14190), and cells were harvested with a rubber-policeman in 4° C. cold and calcium-free PBS supplemented with a protease inhibitor cocktail (complete protease inhibitor; Roche, cat. no. 1697498; 1 tablet per 50 ml) and subsequently centrifuged at 4° C. for 15 min at 1100×g (Heraeus Minifuge T). For cell lysis, the pellet was resuspended in a 4° C. cold hypotonic buffer consisting of 5 mM HEPES (Sigma-Aldrich, cat. no. H-0981), 1 mM EDTA (disodium salt; Merck, cat. No. 8418) supplemented with protease inhibitor cocktail (as above) in which cells were stored for another 15 min on ice. After lysis, cells were centrifuged at 4° C. for 10 min at 400×g (Heraeus Minifuge T). The pellet was disrupted in a Dounce homogenizer, diluted with the supernatant of the previous centrifugation and subsequently centrifuged at 4° C. for 10 min at 500×g (Heraeus Minifuge T) in order to separate nuclei and still intact cells from the membranes mainly present in the supernatant. The supernatant was then diluted in hypotonic buffer and centrifuged (Beckmann, Avanti J251) at approximately 18 600×g for 2 h at 4° C. After centrifugation, the membrane pellet was resuspended in a storing buffer consisting of 20 mM HEPES; 150 mM NaCl (Merck, cat. no. 6400), 1 mM EDTA (as above) supplemented with protease inhibitor cocktail (as above). […] Protein concentration of the membrane preparation was determined in a sample by means of a commercial protein assay (Bio-Rad, DC Protein Assay, cat. nos. 500-0113, 500-0114, 500-0115).
The Edg 1 membrane preparation obtained in (b) was employed in a commercially available scintillation proximity assay (SPA) kit for G-protein coupled receptor binding from Amersham Biosciences/GE Healthcare (code RPNQ0210), in which ligand-induced binding of ^35S-radiolabeled GTP-γ-S to the receptor-containing membrane, which is bound to scintillation beads, stimulates the emission of light and allows to quantify the in vitro activity of the Edg 1 agonistic compound. […]

T1 sequence (P21453 whole entry): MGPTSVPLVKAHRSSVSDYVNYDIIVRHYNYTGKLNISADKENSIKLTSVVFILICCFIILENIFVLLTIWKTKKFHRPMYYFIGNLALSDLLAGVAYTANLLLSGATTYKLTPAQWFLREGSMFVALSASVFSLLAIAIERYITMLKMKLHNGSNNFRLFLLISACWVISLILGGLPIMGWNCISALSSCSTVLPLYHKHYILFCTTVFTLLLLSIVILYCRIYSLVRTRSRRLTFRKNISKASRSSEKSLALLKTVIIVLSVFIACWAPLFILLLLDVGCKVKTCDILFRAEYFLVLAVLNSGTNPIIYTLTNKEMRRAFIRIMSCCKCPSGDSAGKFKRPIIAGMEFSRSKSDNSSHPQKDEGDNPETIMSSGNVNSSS

Edg 1 receptor activation in percent of the activation by 10 μM S1P (% activation) [%] | Structure (SMILES)
74 | Cc1cc(-c2nc3ccc(Oc4ccccc4F)nc3o2)cc(C)c1OCC(=O)O [Example 1, {4-[5-(2-Fluorophenoxy)oxazolo[5,4-b]pyridin-2-yl]-2,6-dimethylphenoxy}acetic acid]
51 | Cc1cc(-c2nc3ccc(Oc4ccccc4F)nc3o2)cc(C)c1OC(C)C(=O)O (stereo not shown) [Example 2, 2-{4-[5-(2-Fluorophenoxy)oxazolo[5,4-b]pyridin-2-yl]-2,6-dimethylphenoxy}propionic acid]
39 | Cc1cc(-c2nc3ccc(Oc4ccccc4F)nc3o2)cc(C)c1OC(C)(C)C(=O)O [Example 3, 2-{4-[5-(2-Fluorophenoxy)oxazolo[5,4-b]pyridin-2-yl]-2,6-dimethylphenoxy}-2-methylpropionic acid]
86 | Cc1cc(-c2nc3ccc(Oc4ccccc4F)nc3o2)cc(C)c1OCC(C)(C)C(=O)O [Example 4, 3-{4-[5-(2-Fluorophenoxy)oxazolo[5,4-b]pyridin-2-yl]-2,6-dimethylphenoxy}-2,2-dimethylpropionic acid]
